Tests used:
[1] = system: knee prosthesis in patients; conditions: administered orally to patients undergoing total knee replacement; cited from earlier work
[2] = system: bone-connecting implant in a human; assay: Displacement or migration of implant by radiosterometric analysis (RSA) in patients treated with PTH; format: in vivo
Excerpt: For example, in Hilding, M. et al., Acta Orthopaedica Scandinavica 71:553-557 (2000), several 0.8 mm tantalum markers were positioned in both the proximal tibia and the plastic insert during total knee replacement surgeries. The positions of the markers were followed by radiographs taken one day, six weeks, six months and one year following the operation as a means to monitor postoperative implant shifting. Other techniques for measuring or evaluating the stability of bone-connecting implants are known to those skilled in the art and may be applied to the present invention.
The displacement or migration of the implanted artificial hip is measured over a 6-month period using radiosterometric analysis (RSA) as described in Hilding et al., supra.
The displacement or migration of the implanted artificial hip is measured over a 9-month period using radiosterometric analysis (RSA) as described in Hilding et al., supra.
The displacement or migration of the implanted tibia is measured over a 4-month period using radiosterometric analysis (RSA) as described in Hilding et al., supra.
The displacement or migration of the implanted artificial knee is measured over a 12-month period using radiosterometric analysis (RSA) as described in Hilding et al., supra.

[3] = system: humans suffering from osteoporosis; conditions: cited from earlier work
[4] = system: rats, titanium bone chamber; conditions: 15-240 μg/kg/day for six weeks; cited from earlier work
[5] = system: rats, stainless steel screw; conditions: 60 μg/kg/day for four weeks; cited from earlier work

Question: Which prosthetic migration [1] does the source give for `O=P(O)(O)C(Cl)(Cl)P(=O)(O)O` [Clodronate] here?
Answer: appeared to reduce prosthetic migration

Question: Which results are given for “PTH(1-34): The N-terminal 34 amino acids of human PTH (parathyroid hormone); PTH utilized in Examples 1-5 (SVSEIQLMHNLGKHLNSMERVEWLRKKLQDVHNF; Parathyroid hormone; UniProt P01270 32-65, looked up, fragment)”?
Answer: likelihood of reoperation ([2]; Example 1: person, osteoporosis, artificial hip, regimen of Table 1): reduce the likelihood of reoperation; likelihood of reoperation ([2]; Example 2: person, osteoarthritis, artificial hip, regimen of Table 2): reduce the likelihood of reoperation; likelihood of reoperation ([2]; Example 3: person, tibia replacement, regimen of Table 3): reduce the likelihood of reoperation; likelihood of reoperation ([2]; Example 4: person, knee replacement, regimen of Table 4): reduce the likelihood of a reoperation; likelihood of reoperation ([2]; Example 5: person, artificial hip, regimen of Table 5): reduce the likelihood of reoperation; fractures [3]: reduce fractures; spinal bone mineral content [3]: increase spinal bone mineral content; new bone formation [4]: enhances new bone formation; fixation of a stainless steel screw [5]: enhances fixation of a stainless steel screw
